In patent US8173768B2, “Peptides having antimicrobial and neurotrophic activity and uses thereof” (priority 2009, dated 2012):
Bridge positions count the residues as written; N and C are the ends. Square brackets hold non-standard residues; d marks the D form. Ends that are not written are not given here. Peptide text beside a SMILES is read from it. Phe(ol) = N[C@H](CO)Cc1ccccc1; Aib = CC(C)(N)C(=O)O

Experiments:
[1] = system: Gram negative A. hydrophila; assay: liquid growth inhibition assay; format: cell-based, Aeromonas hydrophila; details: at the same concentration as against M. nishinomiyaensis
Text: Microorganisms: The Gram-positive and Gram-negative bacteria Micrococcus nishinomiyaensis and Aeromonas hydrophila respectively were isolated from the natural environment of Hirudo medicinalis. These bacterial colonies, which are present in the water, were selected from agar plate under aerobic conditions at room temperature using a random isolation grid. The Gram-positive bacteria Bacillus megaterium was used for the SYTOX Green assay.
(§1) Antimicrobial assays: After each purification step, antibacterial activity was monitored by a solid plate assay as described in previous studies (14). The minimal inhibitory concentration (MIC) and the minimal bactericidal concentration (MBC) were determined according to the method of Hancock (http://cmdr.ubc.ca/bobh/showmethod.php?methodid=79). […]
No activity was found towards the Gram negative A. hydrophila at the same concentration. […] Since neuromacin contains four histidine residues in its primary structure (in contrast to none in theromacin), we evaluated the effect of a more acidic pH, at which the histidine residues are protonated, on the membrane-permeabilizing activity (FIG. 5B). […] Similar activity against the Gram-negative representative E. coli was not detected up to a neuromacin concentration of 25 μM (data not shown). […]

[2] = system: B. megaterium; assay: SYTOX Green membrane permeabilization assay; format: cell-based, Bacillus megaterium
Procedure: FIG. 5 illustrates membrane permeabilization of B. megaterium induced by neuromacin. Membrane damage of the bacteria was measured fluorometrically using the dye SYTOX Green. […] Antibacterial activity of the peptides is expressed as a percentage of permeabilized bacteria. (A) Time kinetics of membrane permeabilization induced by neuromacin measured for different doses at various incubation periods. (B) Membrane permeabilizing effects of neuromacin (rhombs) in comparison with cecropin P1 (triangles) and magainin II (circles) after 30 min of incubation of B. megaterium with each peptide at various concentrations, at pH 5.2 (open symbols) and at pH 7.4 (closed symbols). […]
as §1
No activity was found towards the Gram negative A. hydrophila at the same concentration. […] Since neuromacin contains four histidine residues in its primary structure (in contrast to none in theromacin), we evaluated the effect of a more acidic pH, at which the histidine residues are protonated, on the membrane-permeabilizing activity (FIG. 5B). […]

[3] = pore-forming activity (dissipation of membrane potential in liposomes); format: biochemical
Procedure: Antimicrobial assays: After each purification step, antibacterial activity was monitored by a solid plate assay as described in previous studies (14). The minimal inhibitory concentration (MIC) and the minimal bactericidal concentration (MBC) were determined according to the method of Hancock (http://cmdr.ubc.ca/bobh/showmethod.php?methodid=79). Permeabilization of bacterial membranes and pore-forming activity were assayed as previously described (Herbst, R et al. (2002), J Biol Chem 277:22353-22360; Leippe, M. et al. 1991. Proc Natl Acad Sci USA 88:7659-7663).
No activity was found towards the Gram negative A. hydrophila at the same concentration. […] Since neuromacin contains four histidine residues in its primary structure (in contrast to none in theromacin), we evaluated the effect of a more acidic pH, at which the histidine residues are protonated, on the membrane-permeabilizing activity (FIG. 5B). […] Similar activity against the Gram-negative representative E. coli was not detected up to a neuromacin concentration of 25 μM (data not shown). We also measured the pore-forming activity of neuromacin to further characterize its mode of action by using a minimalistic membrane system. More precisely, we monitored the dissipation of a membrane potential induced in liposomes composed of azolectin, a crude phospholipid mixture from soy bean.

[4] = system: axotomized nerve cords; assay: regeneration of axotomized leech nerve cord ex vivo (time-lapse); set-up: species or system Hirudo medicinalis; details: native neuromacin 4 μM, aseptic conditions; 4 days without neuromacin
Procedure: Collection and treatment of the nerve cords: Adult leeches, Hirudo medicinalis species, weighting 2-3 g were purchased from a commercial supplier (Ricarampex, France). Animals were kept in artificial pond water and starved up to 3 weeks before use. Leeches were anaesthetised in 10% ethanol-spring water for 20 min and the nerve cords were removed according to the protocol of Nicholls et al (J Neurophysiol, 1968, 31:740-756.). After three successive baths in antibiotics, cords were placed in Leibowitz-15 (L-15, Gibco) culture medium supplemented with 2% fetal calf serum, 0.6% glucose and gentamicin ([…]) (Nature, 1979, 281:67-69). Connectives between ganglia were injured in a standard manner using a pair of sterilized fine iridectomy scissors. Axotomized nerve cords were separately incubated in L-15 medium containing different microbial components: 3×10^7 CFU/ml of heat killed or live bacteria, 10 μg/ml of polyI:C (Invivogen), 100 μg/ml of zymosan (Invivogen,) and 100 μg/ml of mannane (Invivogen) for different time (t=0 to t=8 days) at room temperature. Incubations without microbial components or bacteria were performed in the same conditions as controls. All the steps were performed under sterile conditions. […]

| Compound | activity towards A. hydrophila [1] | activity relative to cecropin P1 and magainin II ([2]; B. megaterium, within the measurement period) | efficacy to induce membrane lesions, effect of pH ([2]; pH 5.2 versus pH 7.4, FIG. 5B) | pore-forming activity ([3]; final concentrations up to 2 μM (data not shown)) | start of reconnection post-axotomy [4] | pore-forming activity ([3]; positive control at 50 nM (data not shown)) |
| --- | --- | --- | --- | --- | --- | --- |
| H-DCYEDWSRCTPGTSFLTGILWKDCHSRCKELGHRGGRCVDSPSKHCPGVLKNNKQCHCY (disulfide 2-46, 9-38, 24-56, 28-58) [neuromacin] | No activity | over one order of magnitude lower | weaker at pH 5.2 than at pH 7.4 | not detected | less than 24 hours | – |
| CC(=O)NC(C)(C)C(=O)N1CCC[C@H]1C(=O)NC(C)(C)C(=O)N[C@@H](C)C(=O)NC(C)(C)C(=O)N[C@@H](C)C(=O)N[C@@H](CCC(N)=O)C(=O)NC(C)(C)C(=O)N[C@H](C(=O)NC(C)(C)C(=O)NCC(=O)N[C@@H](CC(C)C)C(=O)NC(C)(C)C(=O)N1CCC[C@H]1C(=O)N[C@H](C(=O)NC(C)(C)C(=O)NC(C)(C)C(=O)N[C@@H](CCC(=O)O)C(=O)N[C@@H](CCC(N)=O)C(=O)N[C@H](CO)Cc1ccccc1)C(C)C)C(C)C [alamethicin, reference compound] (Ac-[Aib]P[Aib]A[Aib]AQ[Aib]V[Aib]GL[Aib]PV[Aib][Aib]EQ[Phe(ol)]) | – | – | – | – | – | very strong signal |
